{
  "source": "patent US12138240B2",
  "about": "“Treatment of cardiac dysfunction” (priority 2017, dated 2024)",
  "key": {"male healthy subjects [1]": {"tested_on": "male healthy subjects", "parameters": "species or system human", "conditions": "in vivo", "method": "(§1) Seventeen subjects contributed ECG data to the analysis dataset. The study was randomized single dose escalating phase I first-in-human study designed to investigate the safety and tolerability, and pharmacokinetics of ascending oral doses of ANAVEX 2-73 in male healthy subjects. It was double-blind and placebo-controlled within each dosage step—a two cohort study with alternating single dose escalation performed in male healthy subjects. Subjects were administered 10, 30, 40, 50, or 60 mg of ANAVEX 2-73 orally with a 4-week washout between doses. Sampling for drug and ECG was from predose to 48 hr. Note that Placebo-adjusted (delta-delta) change in QTcF is represented as ΔΔQTcF.\nSubjects provided time-matched exposure-ECG data for analysis. For the exposure-QTc analysis, data obtained after the administration of doses greater than 1 mg were used. […] However, ECG data from the administration of the 1 mg dose were included in the categorical and outlier analysis.\n(§2) Data analysis proceeded from data structure analysis in S-PLUS to linear/nonlinear mixed effects modeling in NONMEM to develop the exposure-QTc relationship for ANAVEX 2-73 and its active metabolite ANAVEX 19-144. The correction method used for QT interval was the Fridericia's correction. The bootstrap was used to determine the reliability/stability of the exposure-QTc models developed. This was necessary to determine if the modeling results obtained with data from the 17 subjects would be applicable to the population at large, given the sample size. Exposure-heart rate and exposure-change from baseline QTc, and exposure-placebo corrected QTc relationship models were developed for the elucidation of any exposure-QTc relationship.\nIn addition, categorical summaries of the ECG data were generated using the ICH E14 guidance-defined categories of QTc interval duration as well as change from baseline.\nA protocol presented herein was a single ascending dose (SAD) phase I first-in-human study designed to investigate the safety and tolerability, and pharmacokinetics of ascending oral doses of ANAVEX 2-73 in male healthy subjects. The study was a randomized, double-blind, and placebo-controlled within each dosage step. It was a two cohort study with alternating single dose escalation performed in male healthy subjects. The subjects were divided into two cohorts of 8 subjects each—Cohort A (n=8), and Cohort B (n=8). However, 17 evaluable subjects were studied in a 8:9 ratio in cohorts A and B, respectively. The study comprised repeated treatment periods with at least 4 weeks of intermediary washout periods.\nPer study protocol, triplicate 12-lead ECGs safety recordings were obtained at the following times: Day 1 at T0/pre-dose (3 baseline ECGs), T+0.25 h (15 min), T+0.5 h (30 min), T+1 h, T+2 h, T+4 h, T+8 h and T+12 h, on Day 2 at T+24 h, T+36 h, and on Day 3 at T+48 h. ECGs were recorded at each PK sampling time (i.e., 0.25, 0.5, 1, 2, 3, 4, 6, 8, 24, 36, and 48 hours after initiation of treatment). Thus, ECG recordings were time-matched with PK sampling.\nECG metrics evaluated included the heart rate (HR), the duration of QT interval, and the heart rate-corrected QT interval according to Fridericia's formula (QTcF). Change of QTcF from baseline (dQTcF), and placebo corrected QTcF (ΔΔQTcF) were generated from the data and used for the analysis.\nBaseline ECG was defined as pre-dose baseline on each dosing occasion. Given the four weeks washout between dosing, the pre-dose baseline ECG was used as the baseline ECG for the particular dose/dosing occasion. A change from baseline variable for QTc interval (ΔQTcF) was calculated using pre-dose baseline.\nΔΔQTcF data was a single dose ascending study. As such not all subjects were administered placebo in each of the study periods. Only nine subjects were administered placebo in the course of the study. Consequently, it was not possible to make subject specific placebo correction. […]"}, "[2]": {"test": "phase I single ascending dose study, plasma concentrations of ANAVEX 2-73 and metabolite ANAVEX 19-144", "format": "in vivo, human", "conditions": "for plasma concentration of the labelled analyte: 1 mg ANAVEX 2-73 oral dose; for concentration at 24 h / Cmax: human, plasma; for concentration at 24 h: one subject, 40 mg ANAVEX 2-73 oral, 24 hr time point, read-out: plasma concentration of the labelled analyte; for Cmax: male", "method": "as §1\nBlood samples for ANAVEX 2-73 and metabolite ANAVEX 19-144 plasma concentration determination were drawn on Day 1 at time zero, T0, (before drug administration), T+0.25 h (15 min), T+0.5 h (30 min), T+1 h, T+1.5 h, T+2 h, T+3 h, T+3.5 h, T+4 h, T+6 h, T+8 h and T+12 h, on Day 2 at T+24 h and T+36 h, and on Day 3 at T+48 h.\nThe PK variables employed in the analysis were the patient-, regimen- and time-specific observed plasma concentration of ANAVEX 2-73 and ANAVEX 19-144.\nThe dataset comprised observed ANAVEX 2-73 and ANAVEX 19-144 plasma concentrations that were direct matches in time with QT interval measurements. The analysis variable of interest was the QT interval duration corrected for RR interval duration according to Fridericia's formula (i.e., QTcF), HR, and change from baseline QT interval duration corrected for RR interval duration according to Fridericia's formula (ΔQTcF or dQTcF). Baseline is defined as the mean of any and all values immediately obtained prior to ANAVEX 2-73 administration."}, "male healthy subjects [3]": {"tested_on": "male healthy subjects", "test": "linear exposure-heart rate model (NONMEM)", "parameters": "species or system human", "source_text": "as §2\nConcentration-QTc modeling was performed with the software NONMEM v7.3 (Icon Development Solutions, Ellicott City, MD) and graphical analysis, diagnostics plots, and supporting analyses using S Plus v8.2 (TIBCO Software, Boston, MA) and the R package.\nFurther modeling characterizes the exposure-heart rate relationship. […] for the model were ANAVEX 2-73 and ANAVEX 19-144 concentrations, and time. The baseline heart rate was also estimated. The best model developed to explain the exposure-heart rate relationship included all three variables. Again, ANAVEX 2-73 concentration by itself was not initially biologically QT active, but became active as metabolized to A19-144 in the model. At about 4 to 8 hours post administration A19-144 peaks and surpasses A2-73 at about 8 hours post administration. […] The metabolism of A2-73 to A19-144 modifies this effect. […] It is important to note the upward and negative inflexions in the parent compound and the active metabolite in the final model, respectively, are not indicative of model misspecification but are due to the sensitivity of smoothing loess regression (red line in FIG. 17) to outlying observations in the y-axis. The final model is given below: HRij=56.5−0.106*Parent+0.369*Metabolite+0.153*Time where HRij is subject specific heart rate, Parent refers to ANAVEX 2-73, and Metabolite is for ANAVEX 19-144.\nObserved and unlikely to be observed concentrations of the parent drug and metabolite are used to predict heart rate, given the parameter estimates obtained with the exposure-heart rate model developed. […] Thus, the heart rate upon treatment with ANAVEX 2-73 is predicted to be below 75 beats/min."}, "[4]": {"tested_on": "muscarinic acetylcholine receptors", "conditions": "stated as 'is believed to bind'; cited from earlier work"}},
  "note": "“Also recorded” adds a separate entry of the source. Like-named read-outs stand apart in the source and are kept apart here.",
  "data": [
    {"molecule": "CN(C)CC1CCOC1(c1ccccc1)c1ccccc1.Cl", "note": "(stereo not drawn) [ANAVEX 2-73, 1-(2,2-diphenyltetrahydrofuran-3-yl)-N,N-dimethylmethanamine hydrochloride]", "values": [
      {"measurement": "QT interval prolongation", "setting": "male healthy subjects [1]", "result": "does not prolong QT interval"},
      {"measurement": "effect on dQTcF (exposure-dQTcF characterization)", "setting": "male healthy subjects [1]", "result": "did not show any effect"},
      {"measurement": "graphical relationship of paired concentrations with QTcF measurements", "setting": "male healthy subjects [1]", "result": "minimal positive trend"},
      {"measurement": "relationship with ΔΔQTcF (placebo-adjusted change in QTcF)", "setting": "male healthy subjects [1]", "result": "no relationship"},
      {"measurement": "dQTcF (change in QTcF from baseline), any subject", "setting": "male healthy subjects [1]; male, human", "result": "≤ 30", "unit": "ms"},
      {"measurement": "plasma concentration of the labelled analyte", "setting": "[2]", "result": "not quantifiable at most of the sampling times beyond two to four hours after dosing"},
      {"measurement": "concentration at 24 h", "setting": "[2]", "result": 2.23, "unit": "ng/mL"},
      {"measurement": "Cmax", "setting": "[2]; oral, footnote a, read-out: ANAVEX 2-73 Concentration, observed Cmax from the QTc analysis dataset", "result": 46.2, "unit": "ng/mL"},
      {"measurement": "Slope on parent, exposure-heart rate model estimate", "setting": "male healthy subjects [3]", "result": "−0.106", "unit": "beats/min/ng/mL"},
      {"measurement": "initial effects on heart rate", "setting": "male healthy subjects [3]", "result": "opposite initial effects on heart rate"}
    ]},
    {"molecule": "CNCC1CCOC1(c1ccccc1)c1ccccc1.Cl", "note": "(stereo not drawn) [ANAVEX 19-144, 1-(2,2-diphenyltetrahydrofuran-3-yl)-N-methylmethanamine hydrochloride]", "values": [
      {"measurement": "anti-arrhythmic activity", "setting": "male healthy subjects [1]", "result": "anti-arrhythmic"},
      {"measurement": "effect on dQTcF (exposure-dQTcF characterization)", "setting": "male healthy subjects [1]", "result": "did not show any effect"},
      {"measurement": "graphical relationship of paired concentrations with QTcF measurements", "setting": "male healthy subjects [1]", "result": "slight minimal upward trend from baseline followed by a slight negative trend"},
      {"measurement": "relationship with ΔΔQTcF (placebo-adjusted change in QTcF)", "setting": "male healthy subjects [1]", "result": "no relationship"},
      {"measurement": "plasma concentration of the labelled analyte", "setting": "[2]; hydrochloride", "result": "below the limit of detection; also recorded: not quantifiable"},
      {"measurement": "ANAVEX 19-144 Concentration, observed Cmax from the QTc analysis dataset", "setting": "[2]; footnote a, after oral ANAVEX 2-73, hydrochloride", "result": "23.96 ^a ng/mL"},
      {"measurement": "concentration at 24 h", "setting": "[2]", "result": 3.33, "unit": "ng/mL"},
      {"measurement": "Cmax", "setting": "[2]; footnote a, after oral ANAVEX 2-73, read-out: ANAVEX 19-144 Concentration, observed Cmax from the QTc analysis dataset", "result": 24, "unit": "ng/mL"},
      {"measurement": "Slope on metabolite, exposure-heart rate model estimate", "setting": "male healthy subjects [3]", "result": 0.369, "unit": "beats/min/ng/mL"},
      {"measurement": "initial effects on heart rate", "setting": "male healthy subjects [3]", "result": "opposite initial effects on heart rate"},
      {"measurement": "affinity for muscarinic acetylcholine receptors", "setting": "[4]", "result": "low micromolar range"}
    ]}
  ]
}
